Data on five compounds can be found in patent US5607937A, “Piperazides of substituted phenylalanine derivatives as thrombin inhibitors” (priority 1993, dated 1997).

Read-outs that look alike come from different tables or passages of the source.

Data set [1] addresses factor Xa (Bos taurus, UniProt P00743). The data set is described as follows: inhibition of factor Xa, dissociation constant Ki. To be noted: Table 1. The data set is classed as biochemical. The method, then:
(§1) The biological activity of the compounds of the present invention was determined in vitro as well as in vivo.

Data set [2] has as its target T1, thrombin (Bos taurus, UniProt P00735).
Data set [3] concerns coagulation in human plasma. The data set is described as follows: thrombin time (TT) in human plasma.
Data set [4] has as its target tPA (Homo sapiens, UniProt P00750). The data set is described as follows: inhibition of tPA, dissociation constant Ki.
The target in data set [5] is plasmin (Homo sapiens, UniProt P00747). The data set is described as follows: inhibition of plasmin, dissociation constant Ki. As to conditions: read-out: Ki, Plasmin; Table 1.
Data set [6] concerns coagulation in human plasma. The data set is described as follows: prothrombin time (PT, Quick value) in human plasma.
Data set [7] concerns the target T2, factor XIIa (Homo sapiens, UniProt P00748).
T2 sequence (P00748 373-615 limits assumed): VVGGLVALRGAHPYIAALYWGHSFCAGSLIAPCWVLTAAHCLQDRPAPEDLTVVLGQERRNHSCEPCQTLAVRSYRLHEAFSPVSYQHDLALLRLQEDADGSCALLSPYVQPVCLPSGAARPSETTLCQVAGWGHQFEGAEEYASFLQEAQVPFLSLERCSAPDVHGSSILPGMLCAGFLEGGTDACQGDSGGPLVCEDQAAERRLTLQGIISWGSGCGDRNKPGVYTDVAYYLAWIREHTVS
The data set can be described thus: inhibition of factor XIIa, dissociation constant Ki. To be noted: Table 1.

In data set [8] the target is plasma kallikrein (Homo sapiens, UniProt P03952). The data set can be described thus: inhibition of plasma kallikrein, dissociation constant Ki. As to conditions: Table 1.
Data set [9] deals with glandular kallikrein (Sus scrofa, UniProt P00752). The data set can be described thus: inhibition of glandular kallikrein, dissociation constant Ki.
The test system of data set [10] is coagulation in human plasma. The data set can be described thus: activated partial thromboplastin time (aPTT) in human plasma.
Data set [11] deals with T3, trypsin (Bos taurus, UniProt P00760).
T3 sequence (P00760 24-246): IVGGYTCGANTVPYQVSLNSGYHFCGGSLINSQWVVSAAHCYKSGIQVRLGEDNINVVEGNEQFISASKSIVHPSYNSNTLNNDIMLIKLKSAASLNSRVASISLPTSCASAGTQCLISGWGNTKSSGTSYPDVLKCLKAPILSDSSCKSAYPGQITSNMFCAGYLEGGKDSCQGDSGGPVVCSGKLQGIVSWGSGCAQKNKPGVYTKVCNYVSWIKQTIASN
The data set is described as follows: inhibition of trypsin, dissociation constant Ki. To be noted: Table 1; read-out: Ki, Trypsin. The arrangement: thrombin and the related enzymes trypsin, plasmin, factor Xa, factor XIIa. The data set is classed as biochemical. On the procedure:
as §1

Data set [12] concerns the target T3, trypsin. As to conditions: literature; cited from earlier work.
The target of data set [13] is thrombin (Homo sapiens, UniProt P00734). To be noted: literature; cited from earlier work.
Data set [14] is described as follows: plasma concentration in rats after intravenous administration. The data set is classed as in vivo. To be noted: rat.
Description: (§3) A physiological NaCl solution of the substance to be tested was submitted to high pressure liquid chromatography (HPLC) in order to determine its characteristic substance-specific retention time with the chosen test conditions.
(§4) The substance to be tested was diluted in vitro in rat plasma. This solution was also submitted to HPLC to see whether the characteristic peak of the substance once again appeared at the substance-specific retention time.
(§5) Blood samples were taken at time intervals of 15 minutes, from which plasma samples were prepared by centrifugation; those samples were also submitted to HPLC to see whether the characteristic peak of the substance appeared again at the substance-specific retention time.
(§6) After administration, blood samples were taken from the test animals at time intervals from 2 to maximally 360 minutes and the blood level of the compounds to be tested was determined by HPLC.
Data set [15] in a line: plasma concentration in rats after oral administration. To be noted: rat, oral. The data set is classed as in vivo.
Description: as §3, §4, §5, §6
The nature of data set [16]: plasma concentration in rats after rectal administration. The data set is classed as in vivo. As to conditions: plasma, rat, rectal 20 mg/kg.
A short description of data set [17]: in vivo. As to conditions: plasma, rat, intraduodenal 100 mg/kg.
In data set [18] the test system is coagulation in rat plasma. The data set is described as follows: thrombin time in rat plasma after rectal application. The data set is classed as in vivo. To be noted: rectal 5 mg/kg. The method, then: (§2) After rectal administration of the compounds to be tested, the anticoagulant effect was determined in the plasma of experimental animals.
In data set [19] the test system is coagulation in rat plasma. The data set can be described thus: aPTT in rat plasma after rectal application. The data set is classed as in vivo. To be noted: rectal 5 mg/kg. The method, then: as §2
Data set [20] is described as follows: concentration in rat plasma in the anticoagulant study after rectal application. The data set is classed as in vivo. To be noted: rectal 5 mg/kg.
The target in data set [21] is T1, thrombin. The data set can be described thus: biochemical.
Where [22] appears, read: read-out: Ki, Thrombin, Table 1.
Where [23] appears, read: read-out: Thrombin inhibition Ki, Table 7.
Setting [24] is: read-out: Ki, Gland. kallikr., Table 1.

Sequence of tPA (P00750 36-562): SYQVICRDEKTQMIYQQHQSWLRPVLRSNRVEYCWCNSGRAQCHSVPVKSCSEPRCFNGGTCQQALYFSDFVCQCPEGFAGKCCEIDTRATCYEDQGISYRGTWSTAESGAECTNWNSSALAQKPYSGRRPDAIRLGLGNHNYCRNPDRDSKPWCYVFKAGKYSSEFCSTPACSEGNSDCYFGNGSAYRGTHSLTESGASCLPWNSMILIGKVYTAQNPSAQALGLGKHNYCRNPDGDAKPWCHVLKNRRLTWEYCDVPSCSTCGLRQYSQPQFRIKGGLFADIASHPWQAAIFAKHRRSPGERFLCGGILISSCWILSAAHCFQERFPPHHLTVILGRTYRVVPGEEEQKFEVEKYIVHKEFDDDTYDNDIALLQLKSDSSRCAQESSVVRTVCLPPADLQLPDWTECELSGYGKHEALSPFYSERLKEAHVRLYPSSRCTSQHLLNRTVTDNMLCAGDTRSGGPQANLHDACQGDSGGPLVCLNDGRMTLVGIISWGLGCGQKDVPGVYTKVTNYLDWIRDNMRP
Sequence of factor Xa (P00743 234-492 limits assumed): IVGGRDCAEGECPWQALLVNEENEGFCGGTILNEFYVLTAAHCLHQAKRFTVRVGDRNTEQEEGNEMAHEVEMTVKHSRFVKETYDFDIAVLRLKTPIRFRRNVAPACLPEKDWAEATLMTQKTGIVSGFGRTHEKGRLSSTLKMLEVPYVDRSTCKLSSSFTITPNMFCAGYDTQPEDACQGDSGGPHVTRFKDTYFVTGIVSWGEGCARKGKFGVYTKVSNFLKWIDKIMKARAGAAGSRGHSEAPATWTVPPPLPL
Sequence of factor Xa (P00743 41-180 partner limits assumed): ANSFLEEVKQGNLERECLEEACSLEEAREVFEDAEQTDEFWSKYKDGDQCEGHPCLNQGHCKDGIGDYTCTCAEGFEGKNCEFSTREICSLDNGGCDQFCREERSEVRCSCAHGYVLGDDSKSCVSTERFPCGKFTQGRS
Sequence of plasma kallikrein (P03952 391-638 limits assumed, species assumed): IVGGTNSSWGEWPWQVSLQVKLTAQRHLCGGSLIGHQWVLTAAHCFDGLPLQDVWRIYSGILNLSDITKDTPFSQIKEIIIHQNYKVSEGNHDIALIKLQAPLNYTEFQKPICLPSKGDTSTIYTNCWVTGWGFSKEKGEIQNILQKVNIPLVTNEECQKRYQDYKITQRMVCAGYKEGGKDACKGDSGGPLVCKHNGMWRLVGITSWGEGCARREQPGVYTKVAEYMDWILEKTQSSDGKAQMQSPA
Sequence of plasma kallikrein (P03952 20-390 partner limits assumed, species assumed): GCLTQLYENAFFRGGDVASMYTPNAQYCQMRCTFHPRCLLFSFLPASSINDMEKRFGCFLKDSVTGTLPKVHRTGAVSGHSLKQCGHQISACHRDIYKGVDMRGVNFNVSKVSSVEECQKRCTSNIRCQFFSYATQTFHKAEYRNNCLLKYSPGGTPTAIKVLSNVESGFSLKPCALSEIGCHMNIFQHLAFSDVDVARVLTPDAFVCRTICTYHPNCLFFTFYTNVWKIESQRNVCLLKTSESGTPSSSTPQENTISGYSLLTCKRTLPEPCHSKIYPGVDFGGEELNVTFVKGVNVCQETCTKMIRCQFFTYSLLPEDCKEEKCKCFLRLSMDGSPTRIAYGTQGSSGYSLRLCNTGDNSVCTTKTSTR
Sequence of glandular kallikrein (P00752 8-246): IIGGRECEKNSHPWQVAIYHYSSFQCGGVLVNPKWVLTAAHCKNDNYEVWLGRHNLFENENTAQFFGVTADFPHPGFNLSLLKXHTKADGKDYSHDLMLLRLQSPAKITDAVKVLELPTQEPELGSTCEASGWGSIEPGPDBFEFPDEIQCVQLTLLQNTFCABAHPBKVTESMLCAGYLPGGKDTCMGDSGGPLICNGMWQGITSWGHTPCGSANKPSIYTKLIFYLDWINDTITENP
Sequence of plasmin (P00747 581-810 limits assumed): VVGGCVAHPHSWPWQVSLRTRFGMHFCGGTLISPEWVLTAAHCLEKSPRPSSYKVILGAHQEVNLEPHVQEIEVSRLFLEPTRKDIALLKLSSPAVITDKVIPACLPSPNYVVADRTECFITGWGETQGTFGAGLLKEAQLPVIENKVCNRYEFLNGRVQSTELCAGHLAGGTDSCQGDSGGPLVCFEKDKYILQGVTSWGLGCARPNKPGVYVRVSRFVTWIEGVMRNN
Sequence of plasmin (P00747 97-580 partner limits assumed): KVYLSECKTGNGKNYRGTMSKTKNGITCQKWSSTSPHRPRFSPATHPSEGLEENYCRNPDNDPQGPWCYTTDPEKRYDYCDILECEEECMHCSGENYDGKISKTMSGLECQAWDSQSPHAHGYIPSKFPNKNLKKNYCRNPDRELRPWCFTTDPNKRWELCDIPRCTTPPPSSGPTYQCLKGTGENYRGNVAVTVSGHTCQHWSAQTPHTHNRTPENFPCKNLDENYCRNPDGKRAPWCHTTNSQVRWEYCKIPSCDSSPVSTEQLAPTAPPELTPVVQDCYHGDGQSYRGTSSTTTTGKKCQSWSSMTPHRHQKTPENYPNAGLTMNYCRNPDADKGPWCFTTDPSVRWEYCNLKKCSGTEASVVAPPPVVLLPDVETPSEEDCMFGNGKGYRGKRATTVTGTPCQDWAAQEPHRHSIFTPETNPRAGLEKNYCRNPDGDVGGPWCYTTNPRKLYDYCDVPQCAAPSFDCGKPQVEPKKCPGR

A word on the Ki: it is a measure of affinity in units of concentration, obtained from inhibition or displacement. As for `CC1(C)C2CCC1(CS(=O)(=O)N[C@@H](Cc1cccc(C(=N)N)c1)C(=O)N1CCN(S(C)(=O)=O)CC1)C(=O)C2` (single isomer, unassigned) [Compound 7], the inhibition constant Ki in data set [1] came out at 1.1 µM; in data set [2] (setting [22]), 0.012 µM; in data set [2] (setting [23]), 0.012 µM; in data set [4] (read-out: Ki, tPA, Table 1), 20 µM; in data set [5] it was 14 µM; in [7] (read-out: Ki, Factor XIIa) it was 61 µM. The Ki in data set [8] (read-out: Ki, Plasma kallikr.) is 25 µM; in data set [9] (setting [24]), over 1000 µM; in [11], 0.22 µM. The “Concentr. to double the Thrombin time” value in [3] is 0.075 µmol/L. Also, in data set [3], the “concentration to double the TT” value is reported as “less than 10^-7 mol/1”. Besides, in data set [6], the “Concentr. to double the Prothrombin time” value turned out to be 1.0 µmol/L. Also, the “concentration to double the PT” value in data set [6] is on record as at most 1 μmol/1. Also, in data set [10], the “Concentr. to double the aPTT” value stood at 0.55 µmol/L. Further, in data set [10], the “concentration to double the aPTT” value was at most 1 μmol/1.
As for `CC1(C)C2CCC1(CS(=O)(=O)N[C@@H](Cc1cccc(C(=N)N)c1)C(=O)N1CCN(S(C)(=O)=O)CC1)C(=O)C2` (single isomer, unassigned) [Compound 8], the Ki in data set [1] is 6.7 µM; in data set [2] (setting [22]), 0.031 µM; in [2] (setting [23]) it was 0.031 µM; in data set [4] (read-out: Ki, tPA, Table 1) it was 82 µM; in data set [5], 29 µM; in data set [7] (read-out: Ki, Factor XIIa) it was 70 µM. For the same compound, the Ki in data set [8] (read-out: Ki, Plasma kallikr.) was 130 µM; in [9] (setting [24]) it was over 1000 µM; in [11], 0.44 µM. Besides, the “Concentr. to double the Thrombin time” value in [3] came to 0.13 µmol/L. Moreover, the “Concentr. to double the Prothrombin time” value in data set [6] was 2.0 µmol/L. The “Concentr. to double the aPTT” value in data set [10] was found to be 1.2 µmol/L.
As for `CC1CNc2c(cccc2S(=O)(=O)N[C@@H](CCCN=C(N)N)C(=O)N2CC[C@@H](C)C[C@@H]2C(=O)O)C1` (stereo partly drawn) [(2R,4R)-4-methyl-1-[Nα-(3-methyl-1,2,3,5-tetrahydro-8-quinolinesulfonyl)-L-arginine]-2-pipecoline-carboxylic acid], the “trypsin-inhibiting activity in words” value in data set [12] is listed as “practically no trypsin-inhibiting activity”.
As for `CC(C)(C)OC(=O)NC(Cc1ccccc1)C(=O)N1CCCC1C(=O)NC(CCCNC(=N)N)B1OC2CC3CC(C3(C)C)C2(C)O1` [Boc-D-Phe-Pro-Boro-Arg-C10 H16], in [13], the “thrombin inhibition in words” value is on record as “inhibited in a time-dependent reaction”. Moreover, the “trypsin-inhibiting activity in words” value in data set [12] is listed as “inhibited in a time-dependent reaction”.
Turning to `CN(C)C(=O)N1CCN(C(=O)[C@H](Cc2cccc(C(=N)N)c2)NS(=O)(=O)c2ccc3ccccc3c2)CC1` [Compound 6], the Ki in [1] was 15 µM; in data set [21], 0.004 µM; in [4] it was over 1000 µM; in data set [7] (Ki, Factor XIIa), 51 µM; in [8] (Ki, Plasma kallikr.), 7.3 µM; in data set [9], over 1000 µM. In addition, the Ki in data set [11] worked out at 0.097 µM. The same compound came in with a concentration at 5 min in data set [14] (plasma, iv, i.v. 1 mg/kg, 5 min) of 823 ng/mL. This compound returned a concentration at 0.25 h in [14] (plasma, iv, i.v. 1 mg/kg, 15 min) of 289 ng/mL. Besides, the concentration at 0.5 h worked out at 194 ng/mL in data set [14] (plasma, iv, i.v. 1 mg/kg, 30 min); 1180 ng/mL in data set [16] (30 min); 20500 ng/mL in data set [17] (30 min); 648 ng/mL in data set [20] (plasma, 30 min). Further, the concentration at 1 h in data set [14] (plasma, iv, i.v. 1 mg/kg, 60 min) was found to be 141 ng/mL; in data set [16] (60 min) it was 449 ng/mL; in data set [17] (60 min), 6500 ng/mL; in data set [20] (plasma, 60 min) it was 362 ng/mL. Also, the concentration at 2 h in data set [14] (plasma, iv, i.v. 1 mg/kg, 120 min) amounted to 86 ng/mL; in data set [16] (120 min), 850 ng/mL; in [17] (120 min), 3280 ng/mL; in data set [20] (plasma, 120 min), 157 ng/mL. Moreover, the concentration at 3 h in data set [14] (plasma, iv, i.v. 1 mg/kg, 180 min) is 70 ng/mL; in data set [16] (180 min), 272 ng/mL; in data set [17] (180 min), 2060 ng/mL; in data set [20] (plasma, 180 min), 83 ng/mL. In data set [14] (i.v.), the elimination in words entry is “eliminated at comparable rate”. For the same compound, the resorption in words result in [15] was “only slightly resorbed”. Besides, the concentration at 4 h in [16] (240 min) is 46 ng/mL; in data set [17] (240 min), 1500 ng/mL. The concentration at 5 h in data set [17] (300 min) is 1200 ng/mL. The compound also showed a concentration at 6 h in data set [17] (360 min) of 1440 ng/mL. For the same compound, the “Clotting time, Thrombin time” value in [18] (0 min) was 55.3 s; in data set [18] (30 min), over 300 s; in data set [18] (60 min) it was over 300 s; in data set [18] (120 min), over 300 s; in [18] (180 min) it was 213 s. In addition, the “Clotting time, aPTT” value was determined as 22.3 s in [19] (0 min); 34.5 s in [19] (30 min); 31.5 s in [19] (60 min); 28.4 s in data set [19] (120 min); 26 s in [19] (180 min). Also, the Concentration in plasma in [20] (0 min) was 0 ng/mL. Besides, in data set [3], the “Concentr. to double the Thrombin time” value worked out at 0.042 µmol/L. Besides, in data set [3], the “concentration to double the TT” value is given as “less than 10^-7 mol/1”. Moreover, in [6], the “Concentr. to double the Prothrombin time” value amounted to 0.65 µmol/L. In data set [6], the “concentration to double the PT” value is at most 1 μmol/1. In data set [10], the “Concentr. to double the aPTT” value is 0.3 µmol/L. In data set [10], the “concentration to double the aPTT” value is at most 1 μmol/1.
